Laboratory results published in ChEMBL document CHEMBL1133714, “1-(2-Nitrophenyl)thiosemicarbazides: a novel class of potent, orally active non-peptide antagonist for the bradykinin B(2) receptor” (J Med Chem, 2000).
Blank lines part the entries; values can stand above or below the compound they belong to.

Target: T1, B2 bradykinin receptor (Rattus norvegicus, UniProt P25023)
T1 sequence (P25023 whole entry): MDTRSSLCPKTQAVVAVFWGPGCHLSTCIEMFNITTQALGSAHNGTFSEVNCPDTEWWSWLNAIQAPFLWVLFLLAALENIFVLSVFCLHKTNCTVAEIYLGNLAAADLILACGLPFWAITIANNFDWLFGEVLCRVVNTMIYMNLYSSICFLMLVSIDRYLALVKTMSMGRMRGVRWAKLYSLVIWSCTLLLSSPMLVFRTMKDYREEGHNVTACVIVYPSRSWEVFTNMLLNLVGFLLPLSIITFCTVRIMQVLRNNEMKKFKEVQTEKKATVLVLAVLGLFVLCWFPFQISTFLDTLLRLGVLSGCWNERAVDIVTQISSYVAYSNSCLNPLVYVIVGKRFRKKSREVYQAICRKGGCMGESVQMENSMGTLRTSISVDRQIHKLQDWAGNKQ
Experiment: Inhibition of binding of [3H]BK to rat bradykinin B2 receptor expressed in NG108-15 neuroblastoma-glioma hybrid cell membranes
Parameters: species or system Membrane

Ki: > 100000 nM
Compound: O=C(O)c1ccccc1NNC(=S)NCc1ccccc1

Ki: 1600 nM
Compound: O=[N+]([O-])c1ccccc1N/N=C(/S)NCc1ccccc1

Ki: > 100000 nM
Compound: O=[N+]([O-])c1cc(S(=O)(=O)NCc2ccccc2)ccc1N/N=C(\S)CCc1ccccc1

Ki: > 100000 nM
Compound: O=[N+]([O-])c1cccc(N/N=C(\S)NCc2ccccc2)c1

Ki: 100000 nM
Compound: S=C(NCc1ccccc1)NNc1ccccc1

Ki: > 100000 nM
Compound: O=C(NCc1ccccc1)NCc1ccccc1[N+](=O)[O-]

Ki: 7100 nM
Compound: O=[N+]([O-])c1ccccc1CNC(=S)NCc1ccccc1

The remaining lines, values behind:

Compound: O=[N+]([O-])c1ccccc1N/N=C(/S)NC(c1ccccc1)c1ccccc1
Ki: 38 nM

Compound: CN(C)CCCN(CCCN(C)C)S(=O)(=O)c1ccc(NNC(=S)NC(c2ccccc2)c2ccccc2)c([N+](=O)[O-])c1
Ki: 148 nM

Compound: O=[N+]([O-])c1cc(S(=O)(=O)NCc2ccccc2)ccc1NNC(=S)NCc1ccccc1
Ki: 310 nM

Compound: NS(=O)(=O)c1ccc(N/N=C(/S)NC(c2ccccc2)c2ccccc2)c([N+](=O)[O-])c1
Ki: 4 nM

Compound: CN(C)CCN(C)CCNC(=O)[C@H]1CCCN1S(=O)(=O)c1ccc(NNC(=S)NC(c2ccccc2)c2ccccc2)c([N+](=O)[O-])c1
Ki: 0.6 nM

Compound: CN(C)CCN(C)CCNC(=O)[C@@H]1CCCN1S(=O)(=O)c1ccc(NNC(=S)NC(c2ccccc2)c2ccccc2)c([N+](=O)[O-])c1
Ki: 0.5 nM

Compound: NC(=O)c1ccc(N/N=C(/S)NC(c2ccccc2)c2ccccc2)c([N+](=O)[O-])c1
Ki: 1.8 nM

Compound: O=[N+]([O-])c1cc(S(=O)(=O)NCc2ccccc2)ccc1NC/C(S)=N\Cc1ccccc1
Ki: > 100000 nM

Compound: O=[N+]([O-])c1cc(S(=O)(=O)NCc2ccco2)ccc1NNC(=S)NCc1ccco1
Ki: 540 nM
